Results as given in patent US20130237485A1, “Methods and Agents for Enhancing Wound Healing” (UNIVERSITY OF SOUTHERN CALIFORNIA, priority 2010, published 2013).

Columns and labels:
RDEB keratinocytes = assay: Immunoblot (anti-NC1 antibody) for full-length C7 in RDEB keratinocytes treated with aminoglycosides; assay type: cell-based, human; settings: for read-through / full-length C7 production: 48 h, G418 8 μg/mL, gentamicin 200 μg/mL, paromomycin 200 μg/mL, amikacin 1 mg/mL, PTC 124 20 μg/mL, EB5K and DG16 keratinocytes, FIG. 1; for sustained C7 production: G418 8 μg/mL or gentamicin 200 μg/mL, lysed at 3, 5, or 8 days following treatment, FIG. 3; for dose dependence of full-length C7 production: varying concentrations, EB5K and DG16 lines, FIG. 2
Description: RDEB keratinocytes were treated for 48 h with either G418 (8 μg/mL), gentamicin (200 μg/mL), paromomcyin (200 μg/mL), amikacin (1 mg/mL), or PTC 124 (20 μg/mL). Cells were subsequently lysed and subjected to immunoblot analysis with anti-NC1 antibody or anti-β-tubulin antibody (loading control).
RDEB keratinocytes were treated with varying concentrations of G418 and Gentamicin. Cells were lysed and subjected to immunoblot analysis with an anti-NC1 or anti-β-tubulin antibody (loading control).
EB5K and D016 keratinocytes were treated with G418 (8 μg/mL) or gentamicin (200 μg/mL). Cells were lysed at 3, 5, or 8 days following treatment and subjected to immunoblot analysis with an anti-NC1 or anti-β-tubulin antibody.

[1] = test system: Human epithelial (293 cells) transfected with nonsense mutation constructs; assay: Immunoblot (anti-NC1 antibody) of 293 cells transfected with COL7A1 nonsense mutation constructs; assay type: cell-based; settings: 293 cells with mutant constructs; for PTC read-through and full-length C7 production: G418 8 μg/mL or gentamicin 200 μg/mL for 48 h, FIG. 7
Description: For experimentation with cells containing different nonsense mutation in the COL7A1 gene, we used a C7 expression vector to introduce 30 nonsense mutations associated with RDEB via site-directed mutagenesis.
Human epithelial (293 cells) transfected with nonsense mutation constructs were treated with (FIG. 7A) G418 (8 μg/mL) and (FIG. 7B) gentamicin (200 μg/mL) for 48 h, lysed, and subjected to immunoblot analysis with an anti-NC1 antibody or anti-β-tubulin antibody (loading control).
In FIG. 8B, 293 cells transfected with the indicated mutant constructs were either untreated or treated with G418 (8 μg/mL) for 48 h, lysed and subjected to immunoblot analysis using an anti-NC1 antibody or anti-β-tubulin antibody (loading control).

[2] = test system: DG16 and EB5K keratinocytes; assay: Immunofluorescence staining for C7 with polyclonal anti-NC1 antibody; assay type: cell-based, human; settings: G418 8 μg/mL or gentamicin 200 μg/mL, FIG. 4
From the text: Normal human keratinocytes (IKC) were stained in parallel. […] In contrast, untreated parent keratinocytes entirely lacked C7expression.

[3] = test system: EB5K and DG16 keratinocytes; assay: Colloidal gold salt migration assay using collagen I as a matrix; assay type: cell-based; settings: G418 8 μg/mL or gentamicin 200 μg/mL for 48 h; compared with normal human keratinocytes (IKC); FIG. 5
Description: In FIG. 5A, keratinocytes were either untreated or treated with G418 (8 μg/mL) or gentamicin (200 μg/mL) for 48 h and then subjected to colloidal gold salt migration assay using collagen I as a matrix. Representative fields were photographed at 40× under dark field optics. In FIG. 5B, migration index expresses the percentage of the total field area consumed by the migration tracks. Error bars, SD of three different experiments.

Molecule | read-through / full-length C7 production (RDEB keratinocytes) | PTC read-through and full-length C7 production [1] | C7 staining (immunofluorescence) [2] | sustained C7 production (RDEB keratinocytes) | dose dependence of full-length C7 production (RDEB keratinocytes) | keratinocyte hypermotility (migration index) [3] | levels of truncated and full-length C7 production compared to untreated cells ([1]; G418 8 μg/mL for 48 h, FIG. 8B)
O=C(O)c1cccc(-c2noc(-c3ccccc3F)n2)c1 [PTC124, PTC 124] | did not cause read-through in either keratinocyte line |  |  |  |  |  | 
gentamicin | induced full-length C7 production in both EB5K and DG16 keratinocytes | induced PTC read-through and full-length C7 production | demonstrated C7 staining | induced sustained C7 production | induced full-length C7 production in a dose-dependent manner in both EB5K and DG16 lines | reversed their hypermotility phenotype to normal | 
NCC[C@H](O)C(=O)N[C@@H]1C[C@H](N)[C@@H](O[C@H]2O[C@H](CN)[C@@H](O)[C@H](O)[C@H]2O)[C@H](O)[C@H]1O[C@H]1O[C@H](CO)[C@@H](O)[C@H](N)[C@H]1O [Amikacin, amikacin] | did not cause read-through in either keratinocyte line |  |  |  |  |  | 
NC[C@@H]1O[C@H](O[C@H]2[C@@H](O)[C@H](O[C@@H]3[C@@H](O)[C@H](N)C[C@H](N)[C@H]3O[C@H]3O[C@H](CO)[C@@H](O)[C@H](O)[C@H]3N)O[C@@H]2CO)[C@H](N)[C@@H](O)[C@@H]1O [Paromomycin, paromomycin] | induced read-through in DG16 cells only |  |  |  |  |  | 
CN[C@@H]1[C@@H](O)[C@@H](O[C@@H]2[C@@H](O)[C@H](O[C@H]3O[C@H]([C@@H](C)O)[C@@H](O)[C@H](O)[C@H]3N)[C@@H](N)C[C@H]2N)OC[C@]1(C)O [G418] | induced full-length C7 production in both EB5K and DG16 keratinocytes | induced PTC read-through and full-length C7 production | demonstrated C7 staining | induced sustained C7 production | induced full-length C7 production in a dose-dependent manner in both EB5K and DG16 lines | reversed their hypermotility phenotype to normal | significantly higher levels of truncated and full-length C7 production
